The results in this text go back to ChEMBL document CHEMBL1131695, “Design and synthesis of 6-(6-D-ribitylamino-2,4-dihydroxypyrimidin-5-yl)-1-hexyl phosphonic acid, a potent inhibitor of lumazine synthase” (Bioorg Med Chem Lett, 1999).

A short description of this experiment: Inhibitory activity against lumazine synthase beta-60 capsids from Bacillus subtilis.
For the compound `O=P(O)(O)CCCCCCc1c(O)nc(O)nc1NC[C@H](O)[C@H](O)[C@H](O)CO`, the affinity corresponds to a Ki of 109 µM.

The compound `O=C(Nc1c(O)nc(O)nc1NC[C@H](O)[C@H](O)[C@H](O)CO)c1ccc(S(=O)(=O)O)cc1` gave a Ki of 360 µM. Compound `O=C(Nc1c(O)nc(O)nc1NC[C@H](O)[C@H](O)[C@H](O)CO)c1ccc(S(=O)(=O)F)cc1` showed a Ki of 200 µM. On to `O=C(O)CCCC(=O)Nc1c(O)nc(O)nc1NC[C@H](O)[C@H](O)[C@H](O)CO`, for which the affinity corresponds to a Ki of 430 µM. Against the preceding compound, the Ki is about 2.1-fold higher. In the case of `O=c1[nH]c(=O)c2nnn(C[C@H](O)[C@H](O)[C@H](O)CO)c2[nH]1`, the Ki turned out to be 330 µM. `O=c1[nH]c(=O)c2ncn(C[C@H](O)[C@H](O)[C@H](O)CO)c2[nH]1` gave a Ki of 470 µM.
